Experimental data: article PMC12445440 (Journal of Medical Virology, 2025)

Columns and labels:
ZIKV^Br [1] = assay: Virus yield reduction assay, ZIKV^Br on Huh-7 cells; format: cell-based, Zika virus
ZIKV NS5 [2] = assay: ZIKV protein synthesis by western blot (NS5), Huh-7 cells; format: cell-based, Zika virus; settings: MOI 1, 1x, 5x, 10x EC50 (PS1097 0.6, 3, 6 μM; SOF 1.5, 7.5, 15 μM), 48 h
Protocol: (§1) Immunoblotting was performed as described.
(§2) Viral protein levels in cell lysates were analyzed by immunoblotting (Figure 3A,B), while virion release was assessed by quantifying ZIKV RNA in supernatants (Figure 3C).
(§3) Impact of treatment on ZIKV protein synthesis was evaluated on cell extracts analyzed by western blot using anti‐ ZIKV NS5, or anti‐GAPDH as a housekeeping control.

ZIKV NS5 [3] = assay: ZIKV protein synthesis by western blot (NS5), Vero E6 cells; format: cell-based, Zika virus; settings: MOI 1, 1x, 5x, 10x EC50, 48 h
Protocol: as §1, §2, §3

ZIKV^Br [4] = assay: Time-of-addition (TOA) experiments, ZIKV^Br in Huh-7 cells; format: cell-based, Zika virus; settings: harvest 48 h p.i.; for Time of addition giving the strongest inhibition: Huh-7, ZIKV^Br MOI 1, 10x EC50 (PS1097 6 μM, SOF 15 μM)
Protocol: PS1097 was added at 6 μM at 0, 2, 6, 12, 24, and 36 h p.i. SOF was used as a reference compound at 15 μM. At 48 h p.i., viral proteins were determined by western blot or by qRT‐PCR in cell lysates.
To elucidate the mechanism of PS1097 antiviral action, TOA experiments were conducted (Figure 4A). ZIKV^Br replication kinetics was assessed by quantifying viral genomic RNA and protein inside Huh‐7 cells at the times p.i. shown in Figure 4A. Viral RNA was detectable as of ~12 h p.i. (Figure 4D), whereas viral protein was visible after 24 h p.i. (Figure 4B,C). In parallel, cells were exposed to viral inoculum for 2 h. […] Then, they were harvested at 48 h p.i. Viral RNA in cells was measured by qRT‐PCR and inhibition relative to DMSO‐treated cells was calculated, as described by (Figure 4G).
(§4) Figure 4 (A) Experimental design of the Time Of Addition (TOA) assay for PS1097 and SOF. (B) ZIKV replication kinetics was determined on Huh‐7 cells infected at MOI 1for 2 h by western blot cell lysates prepared at the times shown. ZIKV NS5 and GAPDH were monitored with the antibodies in Supporting Information: Table S1. (C) Quantitative analysis of the results in B). (D) qRT‐PCR quantification of ZIKV RNA was carried out in ZIKV‐infected cells lysed at the times indicated on the x axis. (E) western blot of lysates of Huh‐7 cells harvested at 48 h p.i. where treatment with PS1097 or SOF was started as by A). (F) Quantitative analysis of the results in E). (G) ZIKV RNA was quantified in lysates of cells harvested at 48 h p.i. where treatment with PS1097 (red line) or SOF (green line) was started at the times p.i. indicated on the x axis. (H) Combined antiviral activity of PS1097 with SOF against ZIKV. Huh‐7 cells were infected with ZIKV then treated with PS1097 or SOF, alone or in combination, at the indicated concentrations. After 48 h p.i., supernatants were harvested and titrated for ZIKV yield. Two‐dimensional representation of dose–response interaction matrix was determined in synergyfinder.org. Color gradient indicates viral yield inhibition score (red‐highest score). […]

[5] = Cytotoxicity by WST-8, uninfected Huh-7 cells; settings: human
ZIKV^Br [6] = assay: Virus yield assay, ZIKV^Br on VeroE6 cells; format: cell-based; settings: Zika virus, Vero C1008, 95% CI in brackets
ZIKV^Br [7] = assay: Virus yield assay, ZIKV^Br on Vero TMPRSS cells; format: cell-based; settings: Zika virus, 95% CI in brackets
ZIKV^Br [8] = assay: Virus yield assay, ZIKV^Br on HMC3 cells; format: cell-based; settings: Zika virus
ZIKV^Br [9] = assay: Virus yield assay, ZIKV^Br on C6/36 cells; format: cell-based; settings: Zika virus, 95% CI in brackets
ZIKV^Br [10] = assay: Virus yield assay, ZIKV^Br on A549 cells; format: cell-based; settings: Zika virus, 95% CI in brackets
[11] = Cytotoxicity by WST-8, VeroE6 cells; format: cell-based; settings: simian, 95% CI in brackets
Protocol: (§5) Cytotoxic/cytostatic effects were evaluated in uninfected cells by WST‐8 (Orangu, Cell Guidance Systems): 1 × 10^4 cells/well in a 96‐well plate were incubated in the presence of threefold serial dilutions of compounds, from 0.30 to 218 μM, for 48 h. Medium was replaced with 50 μL of 10% WST‐8, in DMEM, 2% FBS. Following a 1‐h incubation at 37°C, optical density (OD) in wells was measured at 450 nm using Varioskan LUX (ThermoFisher Scientific). CC50 was calculated using the formula: %viability=100×(ODcompound/ODuntreated control) where ODcompound and ODuntreated are the OD of the cells treated with compound or DMSO, respectively.

[12] = Cytotoxicity by WST-8, HMC3 cells; format: cell-based; settings: human, 95% CI in brackets
Protocol: as §5

[13] = Cytotoxicity by WST-8, C6/36 cells; format: cell-based; settings: Aedes albopictus, 95% CI in brackets
Protocol: as §5

[14] = Cytotoxicity by WST-8, A549 cells; format: cell-based; settings: human, 95% CI in brackets
Protocol: as §5

ZIKV^Ug = assay: microbe, parasite or virus in culture; format: cell-based; settings: Zika virus; ZIKV^Ug (Huh-7); 95% CI in brackets
USUV = assay: microbe, parasite or virus in culture; format: cell-based; settings: Usutu virus; USUV (Huh-7); 95% CI in brackets
WNV = assay: microbe, parasite or virus in culture; format: cell-based; settings: West Nile virus; WNV (Huh-7); 95% CI in brackets
SARS-CoV-2^Mi = assay: microbe, parasite or virus in culture; format: cell-based; settings: Severe acute respiratory syndrome coronavirus 2; SARS-CoV-2^Mi (Vero TMPRSS); 95% CI in brackets
CVB5 = assay: Plaque reduction assay, CVB5 on A549 cells; format: cell-based, Coxsackievirus B5; settings: Enterovirus B, 95% CI in brackets
CHIKV = assay: Plaque reduction assay, CHIKV on Huh-7 cells; format: cell-based; settings: Chikungunya virus, CHIKV (Huh-7), 95% CI in brackets
VSV = assay: microbe, parasite or virus in culture; format: cell-based; settings: Vesicular stomatitis virus, Huh-7
VV-IND-G = assay: microbe, parasite or virus in culture; format: cell-based, Vaccinia virus recombinant for VSV-Indiana G protein; settings: Orthopoxvirus vaccinia, Huh-7
HSV2 = assay: Plaque reduction assay, HSV2 on A549 cells; format: cell-based, herpes simplex virus 2; settings: Human alphaherpesvirus 2
IAV = assay: microbe, parasite or virus in culture; format: cell-based; settings: Influenza A virus, MDCK
TOSV = assay: Plaque reduction assay, TOSV on VeroE6 cells; format: cell-based; settings: Toscana virus, Vero C1008
ZIKV^Br [15] = assay: Synergism between PS1097 and SOF, ZIKV^Br yield; format: cell-based, Zika virus
Protocol: as §4, with “score). (I) Three‐dimensional surface plot representing synergy score (Z axis) for each compound combination.” for “score).”

ZIKV^Br [16] = tested on: ZIKV^Br
BVDV = settings: previously published data; Na = no detected antiviral activity; ref [18]-[22] of main text, [3] of supplement for PS1086, PS1100, PS1101; cited from earlier work
Vero76 = tested on: Vero76; design: method as in earlier work; settings: previously published data; ref [18]-[22] of main text, [3] of supplement for PS1086, PS1100, PS1101; cited from earlier work
in vitro = settings: simian
RTN4 = assay: Western blot of ER proteins in Huh-7 cells: RTN4; settings: 6 μM PS1097, 48 h
FAM134B = assay: Western blot of ER proteins in Huh-7 cells: FAM134B; settings: 6 μM PS1097, 48 h
TMEM41B = assay: Western blot of ER proteins in Huh-7 cells: TMEM41B; settings: 6 μM PS1097, 48 h
Huh-7 cells = assay: Cytotoxicity by WST-8, uninfected Huh-7 cells; settings: read-out: CC50 Huh-7; Table S2, this paper data
[17] = Zika virus, Huh-7, 48 h, ZIKV^Br on Huh-7 cells, viral yield reduction, 48 h, 95% confidence interval in brackets
[18] = Zika virus, Huh-7, read-out: EC50 ZIKV, Table S2, this paper data, Huh-7 cells, Na = no detected antiviral activity

CC(C)OC(=O)[C@H](C)N[P@](=O)(OC[C@H]1O[C@@H](n2ccc(=O)[nH]c2=O)[C@](C)(F)[C@@H]1O)Oc1ccccc1 [SOF, Sofosbuvir, reference compound]
EC50 (ZIKV^Br [1]; [17]): 1.5 µM | EC50 (ZIKV^Br [1]; [18]): 1.53 µM | ZIKV protein expression (NS5, western blot) (ZIKV NS5 [2]): completely abolished protein synthesis | ZIKV protein content (NS5, western blot) (ZIKV NS5 [3]): no effect on viral protein content | Time of addition giving the strongest inhibition (ZIKV^Br [4]): 0–6 h p.i. | CC50 at 48 h [5]: 282 µM

O=c1[nH]c2cc3cccnc3c(Cl)c2nc1-c1cccs1 [PS1097, 5‐chloro‐3‐(thiophen‐2‐yl) pyrido[2,3‐g] quinoxalin‐2(1H)‐one]
EC50 (ZIKV^Br [1]; ZIKV^Br on Huh-7 cells, viral yield reduction, 48 h, 95% confidence interval in brackets): 0.69 µM | EC50 (ZIKV^Br [1]; [17]): 0.6 µM | EC50 (ZIKV^Br [1]; Zika virus, Huh-7, summary value of the discussion for Flaviviruses, read-out: EC50 against Flaviviruses): ~0.7 µM | EC50 (ZIKV^Br [6]): 1.34 µM | EC50 (ZIKV^Br [7]): 2.66 µM | EC50 (ZIKV^Br [8]): > 100 µM | EC50 (ZIKV^Br [9]): 5.51 µM | EC50 (ZIKV^Br [10]): 44.6 µM | CC50 at 48 h ([11]; VeroE6 cells, VeroE6 cells (TOSV row of Table 2)): 575 µM | CC50 at 48 h ([11]; VeroE6 cells (ZIKV^Br row of Table 2)): 126 µM | CC50 at 48 h [12]: 294 µM | CC50 at 48 h [13]: 150 µM | CC50 at 48 h ([14]; A549 cells (CVB5 and HSV2 rows of Table 2)): 218 µM | CC50 at 48 h ([14]; A549 cells (ZIKV^Br row of Table 2)): 130 µM | EC50 (ZIKV^Ug): 1.29 µM | EC50 (USUV): 0.86 µM | EC50 (WNV): 1.15 µM | EC50 (SARS-CoV-2^Mi): 0.1 µM | EC50 (CVB5): 4.47 µM | EC50 (CHIKV): 4.4 µM | EC50 (VSV): > 50 µM | EC50 (VV-IND-G): 1.73 µM | EC50 (HSV2): > 50 µM | EC50 (IAV): > 50 µM | EC50 (TOSV): > 50 µM | ZIKV protein expression (NS5, western blot) (ZIKV NS5 [2]): downregulated viral protein expression | ZIKV protein content (NS5, western blot) (ZIKV NS5 [3]): consistently reduced protein levels | Time of addition up to which viral protein expression is suppressed (ZIKV^Br [4]; Huh-7, ZIKV^Br MOI 1, 10x EC50 (6 μM)): up to 12 h p.i. | Time of addition giving the strongest inhibition (ZIKV^Br [4]): 0–6 h p.i. | Interaction of PS1097 with SOF (synergy) (ZIKV^Br [15]; combined treatment PS1097 2.0–0.125 μM with SOF 5.0–0.39 μM, 48 h p.i., SynergyFinder): No synergistic effects | Interaction of PS1097 with SOF at the highest concentrations (ZIKV^Br [15]; combined treatment, highest concentrations (PS1097 up to 2 μM, SOF up to 5 μM)): slight antagonistic effect | Selection of resistant ZIKV variants (ZIKV^Br [16]; ZIKV^Br passaged weekly on Huh-7 from 0.6 μM PS1097, at least four attempts): no resistant strains | Passage at which no viral yield was found (ZIKV^Br [16]; ZIKV^Br passaged weekly on Huh-7 in the presence of PS1097): 9 passage | EC50 (BVDV): 5 µM | CC50 (Vero76): > 100 µM | CC50 (in vitro): 86.2 µM | CC50 (in vitro; CC50, Vero TMPRSS cells (SARS-CoV-2^Mi row of Table 2), 95% CI in brackets): 436 µM | CC50 at 48 h [5]: 229 µM | RTN4 protein content (western blot) (RTN4): virtually unchanged | FAM134B protein content (western blot) (FAM134B): virtually unchanged | TMEM41B protein content (western blot) (TMEM41B): virtually unchanged

NC(=O)c1ncn([C@@H]2O[C@H](CO)[C@@H](O)[C@H]2O)n1 [RBV, 1‐(b‐D‐ribofuranosyl)‐1H‐1,2,4‐triazole‐3‐carboxamide, reference compound]
EC50 (ZIKV^Br [1]; Zika virus, ZIKV^Br on Huh-7 cells, viral yield reduction, 48 h, 95% confidence interval in brackets, read-out: EC50): 8.8 µM | CC50 at 48 h [5]: 144 µM

O=c1nc(NO)ccn1[C@@H]1O[C@H](CO)[C@@H](O)[C@H]1O [EIDD-1931, β‐D‐N4‐hydroxycytidine, reference compound]
EC50 (ZIKV^Br [1]; Table S2, this paper data, Huh-7 cells, Na = no detected antiviral activity, read-out: EC50 ZIKV): 1.7 µM | CC50 (Huh-7 cells): 148 µM

Cn1c(=O)c(-c2cccs2)nc2c(Cl)c3ncccc3cc21 [PS1240]
EC50 (ZIKV^Br [1]; [17]): 2.06 µM | EC50 (BVDV): 2 µM | CC50 (Vero76): > 100 µM | CC50 at 48 h [5]: 293 µM

CC(C)c1nc2cc3cccnc3c(Cl)c2[nH]c1=O [PS462]
EC50 (ZIKV^Br [1]; [17]): > 100 µM | EC50 (ZIKV^Br [1]; [18]): 100 µM | EC50 (BVDV): 5 µM | CC50 (Vero76): > 100 µM | CC50 at 48 h [5]: 294 µM
